Results: patent US20230241149A1, “TRANSTHYRETIN TETRAMER STABILIZING AGENT, AND PREVENTING AGENT OR PROGRESSION SUPPRESSING AGENT FOR TRANSTHYRETIN AMYLOIDOSIS” (KANEKA CORPORATION, priority 2020, published 2023)

Columns and labels:
transthyretin tetramer [1] = target: T1, transthyretin tetramer (Homo sapiens, UniProt P02766); details: two molecules of glabridin per tetramer; cited from earlier work
transthyretin tetramer [2] = target: T1, transthyretin tetramer; experiment: Stabilization of transthyretin tetramer in serum ex vivo (Test Example 1; urea denaturation, electrophoresis and Western blotting); type: biochemical; design: from tissue; host or cells: human serum (blood of three middle-aged or older persons)
Procedure: The white circles represent the ratios in the serums added with the glabridin. The black circles represent the ratios in the serums added with the medium-chain fatty acid triglyceride solution containing a hydrophobic licorice extract.
Serums were obtained from blood taken from three middle-aged or older persons. The medium-chain fatty acid triglyceride solution containing a hydrophobic licorice extract and the glabridin that were obtained in Example 2 were added to each serum (added in such a manner that the amount of the glabridin was 0, 10, and 50 μM respectively). The resulting mixtures were incubated at 25° C. for 30 minutes, and then denatured with urea. Using these samples, the transthyretins (the tetramers and the monomers) in the blood were quantitated by electrophoresis and Western blotting. The stabilization effect was investigated using the ratio of the monomers to the tetramers (monomer/tetramer).

Which “effect on transthyretin tetramer and formation of amyloid fibrils” value (transthyretin tetramer [1]) does the source give for `CC1(C)C=Cc2c(ccc3c2OC[C@@H](c2ccc(O)cc2O)C3)O1` [glabridin] here?
The value was “binding to and stabilizing a transthyretin tetramer”.

And the “ratio of the monomers to the tetramers (monomer/tetramer)” value (transthyretin tetramer [2]; serum from three middle-aged or older persons, glabridin added at concentrations up to 50 μM, 25° C. 30 minutes, then denatured with urea)?
The value was “did not change”.

And the “stabilization effect of the transthyretin (decreasing the ratio of the monomers and increasing the tetramers)” value (transthyretin tetramer [2]; serum, added so that the amount of glabridin was 0, 10, 50 μM)?
Its value is “not observed”.
